Numbers after ± are expanded uncertainties.
What was measured:
[1] = xn = mol fraction of the nth substance listed; conditions: 101 kPa, Liquid; for viscosity: Capillary tube (Ostwald / Ubbelohde) method; for mass density: Vibrating tube method
[2] = 101 kPa, Liquid; for mass density: Vibrating tube method; for viscosity: Capillary tube (Ostwald / Ubbelohde) method

CCCCCCCC [octane] + CCCCCO
[1], x1 = 1
Conditions | mass density [kg/m3] | viscosity [mPa·s]
293.15 K | 702.54 ± 0.15 | 0.545 ± 0.009
298.15 K | 698.49 ± 0.15 | 0.513 ± 0.009
303.15 K | 694.44 ± 0.16 | 0.485 ± 0.009
308.15 K | 690.37 ± 0.16 | 0.459 ± 0.009
313.15 K | 686.29 ± 0.16 | 0.433 ± 0.009
318.15 K | 682.19 ± 0.16 | 0.412 ± 0.008
323.15 K | 678.08 ± 0.16 | 0.392 ± 0.008

CCO [ethanol]
[2]
Conditions | mass density [kg/m3]
293.15 K | 790.91 ± 0.12
298.15 K | 786.6 ± 0.12
303.15 K | 782.28 ± 0.12
308.15 K | 777.94 ± 0.13
313.15 K | 773.56 ± 0.13
318.15 K | 769.15 ± 0.13
323.15 K | 764.69 ± 0.13

CCCCO [butan-1-ol]
[2]
Conditions | mass density [kg/m3] | viscosity [mPa·s]
293.15 K | 809.53 ± 0.12 | 2.968 ± 0.017
298.15 K | 805.7 ± 0.12 | 2.602 ± 0.016
303.15 K | 801.86 ± 0.12 | 2.292 ± 0.015
308.15 K | 797.99 ± 0.12 | 2.025 ± 0.013
313.15 K | 794.1 ± 0.12 | 1.796 ± 0.013
318.15 K | 790.18 ± 0.12 | 1.59 ± 0.012
323.15 K | 786.21 ± 0.13 | 1.414 ± 0.011

CCCCCO [pentan-1-ol]
[2]
Conditions | mass density [kg/m3] | viscosity [mPa·s]
293.15 K | 814.59 ± 0.11 | 4.042 ± 0.022
298.15 K | 810.93 ± 0.12 | 3.518 ± 0.02
303.15 K | 807.24 ± 0.12 | 3.06 ± 0.018
308.15 K | 803.53 ± 0.12 | 2.659 ± 0.016
313.15 K | 799.79 ± 0.12 | 2.334 ± 0.015
318.15 K | 796.03 ± 0.12 | 2.042 ± 0.013
323.15 K | 792.23 ± 0.12 | 1.805 ± 0.013

CCCCCCCC [octane] + CCO
mass density [kg/m3], [1]
Conditions | x1 = 0.1008 | x1 = 0.2015 | x1 = 0.2998 | x1 = 0.4008 | x1 = 0.4663 | x1 = 0.6008 | x1 = 0.6991 | x1 = 0.7931 | x1 = 0.9031 | x1 = 1
293.15 K | 766.88 ± 0.81 | 750.57 ± 0.58 | 738.83 ± 0.44 | 729.83 ± 0.36 | 724.97 ± 0.3 | 716.77 ± 0.27 | 712.03 ± 0.23 | 708.31 ± 0.21 | 704.73 ± 0.19 | 702.54 ± 0.15
298.15 K | 762.56 ± 0.81 | 746.27 ± 0.58 | 734.53 ± 0.44 | 725.55 ± 0.37 | 720.68 ± 0.29 | 712.52 ± 0.27 | 707.81 ± 0.23 | 704.12 ± 0.21 | 700.59 ± 0.19 | 698.49 ± 0.15
303.15 K | 758.23 ± 0.81 | 741.94 ± 0.58 | 730.2 ± 0.44 | 721.22 ± 0.37 | 716.37 ± 0.29 | 708.23 ± 0.27 | 703.55 ± 0.23 | 699.9 ± 0.21 | 696.43 ± 0.19 | 694.44 ± 0.16
308.15 K | 753.87 ± 0.81 | 737.57 ± 0.58 | 725.83 ± 0.44 | 716.86 ± 0.37 | 712.02 ± 0.29 | 703.91 ± 0.27 | 699.27 ± 0.23 | 695.65 ± 0.21 | 692.24 ± 0.19 | 690.37 ± 0.16
313.15 K | 749.47 ± 0.81 | 733.15 ± 0.58 | 721.42 ± 0.44 | 712.46 ± 0.37 | 707.63 ± 0.29 | 699.56 ± 0.27 | 694.94 ± 0.23 | 691.37 ± 0.21 | 688.03 ± 0.19 | 686.29 ± 0.16
318.15 K | 745.03 ± 0.81 | 728.69 ± 0.58 | 716.96 ± 0.44 | 708 ± 0.37 | 703.19 ± 0.29 | 695.15 ± 0.27 | 690.58 ± 0.23 | 687.05 ± 0.21 | 683.78 ± 0.19 | 682.19 ± 0.16
323.15 K | 740.54 ± 0.82 | 724.18 ± 0.58 | 712.45 ± 0.44 | 703.5 ± 0.36 | 698.69 ± 0.3 | 690.7 ± 0.27 | 686.17 ± 0.23 | 682.7 ± 0.21 | 679.51 ± 0.18 | 678.08 ± 0.16

CCCCCCCC [octane]
[2]
Conditions | mass density [kg/m3] | viscosity [mPa·s]
293.15 K | 702.54 ± 0.15 | 0.545 ± 0.009
298.15 K | 698.49 ± 0.15 | 0.513 ± 0.009
303.15 K | 694.44 ± 0.16 | 0.485 ± 0.009
308.15 K | 690.37 ± 0.16 | 0.459 ± 0.009
313.15 K | 686.29 ± 0.16 | 0.433 ± 0.009
318.15 K | 682.19 ± 0.16 | 0.412 ± 0.008
323.15 K | 678.08 ± 0.16 | 0.392 ± 0.008

CCCO [propan-1-ol]
[2]
Conditions | mass density [kg/m3] | viscosity [mPa·s]
293.15 K | 803.84 ± 0.12 | 2.21 ± 0.014
298.15 K | 799.85 ± 0.12 | 1.962 ± 0.013
303.15 K | 795.81 ± 0.12 | 1.746 ± 0.012
308.15 K | 791.74 ± 0.12 | 1.556 ± 0.012
313.15 K | 787.64 ± 0.13 | 1.386 ± 0.011
318.15 K | 783.55 ± 0.13 | 1.242 ± 0.011
323.15 K | 779.32 ± 0.13 | 1.115 ± 0.01

CCO [ethanol] + CCCCCCCC
[1], x2 = 0
Conditions | mass density [kg/m3]
293.15 K | 790.91 ± 0.12
298.15 K | 786.6 ± 0.12
303.15 K | 782.28 ± 0.12
308.15 K | 777.94 ± 0.13
313.15 K | 773.56 ± 0.13
318.15 K | 769.15 ± 0.13
323.15 K | 764.69 ± 0.13

CCCO [propan-1-ol] + CCCCCCCC
[1], x2 = 0
Conditions | mass density [kg/m3] | viscosity [mPa·s]
293.15 K | 803.84 ± 0.12 | 2.21 ± 0.014
298.15 K | 799.85 ± 0.12 | 1.962 ± 0.013
303.15 K | 795.81 ± 0.12 | 1.746 ± 0.012
308.15 K | 791.74 ± 0.12 | 1.556 ± 0.012
313.15 K | 787.64 ± 0.13 | 1.386 ± 0.011
318.15 K | 783.55 ± 0.13 | 1.242 ± 0.011
323.15 K | 779.32 ± 0.13 | 1.115 ± 0.01

CCCCO [butan-1-ol] + CCCCCCCC
[1], x2 = 0
Conditions | mass density [kg/m3] | viscosity [mPa·s]
293.15 K | 809.53 ± 0.12 | 2.968 ± 0.017
298.15 K | 805.7 ± 0.12 | 2.602 ± 0.016
303.15 K | 801.86 ± 0.12 | 2.292 ± 0.015
308.15 K | 797.99 ± 0.12 | 2.025 ± 0.013
313.15 K | 794.1 ± 0.12 | 1.796 ± 0.013
318.15 K | 790.18 ± 0.12 | 1.59 ± 0.012
323.15 K | 786.21 ± 0.13 | 1.414 ± 0.011

Reference: the NIST ThermoML archive (doi:10.1021/je4004806)
